Laboratory results published in patent publication US7579374B2, “Agent for improving bone metabolism” (The Nisshin OilliO Group, Ltd., priority 2001, dated 2009).

Columns and labels:
osteoclasts = test: Bone absorption-inhibitory action in cell co-cultivation system (TRACP activity); assay type: cell-based, mice; details: 10 μM test substance
Excerpt: The cell co-culture system used herein means a system in which osteoblasts and hematopoietic cells are subjected to co-culture in the presence of a factor for promoting the formation of osteoclasts and which thus easily permits the analysis of the differentiation process of the osteoclasts (Endocrinology, 1988, 123: 2600-2602). In such a system, osteoclasts are formed and therefore, the degree of osteoclast-formation can be evaluated by the determination of a tartaric acid-resistant acid phosphatase (TRACP) activity in the cell layer as the parameter indicative of the osteoclast.
The test for the confirmation of the bone absorption-inhibitory action of the isoprenoid ester was carried out according to the method disclosed in the literature (Endocrinology, 1988, 123: 2600). The method will be outlined below:
Stroma cells collected from the skull-caps of two-week-old mice according to the method disclosed in the literature (Endocrinology, 1988, 123: 2600) were dispersed in a 10% fetal bovine serum-containing culture base liquid (α-MEM; available from Gibco Company) to a cell density of 5×10^4 cells/mL.
Spleen cells collected from the spleen of 6-week-old ddy male mice according to the method disclosed in the literature (Proc. Natl. Acad. Sci. USA, 1983, 80: 5583) were dispersed in a 10% fetal bovine serum-containing culture base liquid (α-MEM; available from Gibco Company) to a cell density of 5×10^5 cells/mL.
The co-cultivation was carried out in a 5% CO2-containing atmosphere at a temperature of 37° C. using a 10% FBS (fetal bovine serum)-containing culture base liquid (α-MEM; available from Gibco Company). Osteoblast cells were inoculated on a 24-well petri dish at a cell density of 5×10^4 cells/mL/well, spleen cells were then inoculated thereon at a cell density of 5×10^5 cells/mL/well after one day and a solution of a test substance, which had been dissolved in DMSO in a concentration of 10^-2M, was then added to each well in such a manner that the concentration of the test substance was equal to 10 μM. These cells were cultivated in the presence of 10 nM Calcitriol and 100 nM Dexamethasone over 2 weeks while defining the day on which the spleen cells were inoculated as 0th day. In this respect, the culture medium was replaced with fresh one twice a week. After two weeks, the activity of the tartrate-resistant acid phosphatase (hereunder referred to as “TRACP”) in the cell layer was determined, which served as a parameter indicating the number of osteoclasts in the layer.
In the determination of the TRACP activity, there was used a kit of acid phosphatase KII-WAKO (available from WAKO Pure Chemical Co., Ltd.). The culture medium was removed from the Petri dish, 500 μL each of a substrate was added to each well, the resulting cell suspension was heated at 37° C. for 15 minutes, followed by the addition of 500 μL each of a color developing liquid and the determination of the absorbance at a wavelength of 570 nm. The TRACP activity corresponding to each absorbance thus measured was determined using a calibration curve prepared in advance.

MC3T3-E1 cells [1] = test: Cell growth rate of osteoblasts in cell culture system; assay type: cell-based, mice; details: 10 μM; viable cells after 3 days; relative to control defined as 100
Excerpt: (§1) In such a system, the osteoblasts are proliferated and the activity of osteoblasts is increased. Therefore, any influence of a substance on the osteoblast-formation can be evaluated by determining, for instance, the rate of cell proliferation and the alkaline phosphatase (ALP) activity as an activity parameter.
(§2) In this Example, there were examined the effects of the chain isoprenoid fatty acid esters on the differentiation and calcium-accumulation of MC3T3-E1 cells or the osteoblasts derived from the skull-caps of mice. A culture medium was added to a 6-well plate in an amount of 2 mL/well, a desired number of MC3T3-E1 cells was inoculated on the medium and the cells were cultivated in a 10% fatal bovine serum-containing base culture liquid (α-MEM, available from Gibco Company) at 37° C. in an atmosphere of 5% CO2. On the day subsequent to the initiation of the cultivation, the culture medium was replaced with the fresh one and simultaneously a solution containing each test sample (the chain isoprenoid fatty acid esters obtained in Preparation Examples 1 to 9) was admixed with and added to the culture medium in an amount of 10 μM for the determination of the cell growth rate and 2.5 μM for the determination of the alkali phosphatase (ALP) activity and the cultivation was continued. The cells for the cell growth rate determination were recovered after 3 days from the initiation of the cultivation and the number of viable cells was counted to determine the cell growth rate. Regarding the other cells, the medium was replaced with fresh one on 5th day of cultivation, the test sample-containing solution was again added and the alkali phosphatase (ALP) activity was determined after the cultivation over one week.
The cell growth rate was calculated as a value relative to the cell growth rate observed for the control (free of any added test sample), which was defined to be 100.

MC3T3-E1 cells [2] = test: Alkaline phosphatase (ALP) activity of osteoblasts in cell culture system; assay type: cell-based, mice; details: 2.5 μM
Excerpt: as §1, §2
In these experiments, there was used a kit for Alkaline Phospha K-Test WAKO (available from WAKO Pure Chemical Co., Ltd.). A sample used was a suspension of cells obtained by cultivating the same in the presence of each test substance added. A substrate (150 μL) was added to 10 μL of each sample followed by heating at 37° C. for 15 minutes, the addition of 150 μL of a color-developing liquid and determination of the absorbance at 570 nm. The ALP activity corresponding to each absorbance thus measured was determined using a calibration curve prepared in advance.

Test for acute toxicity = assay type: in vivo, rats; details: oral
Description: The acute toxicity test was carried out according to the following method. Whister female rats (6-week-old, average body weight: 160 g) were previously kept for one week using a powdery blend feed having an AIN-93 composition, divided into three groups (each group containing 10 animals) in such a manner that the average body weight was uniform and the groups were specified as the orally administered group, the subcutaneously administered group and the intraperitoneally administered group, in the following tests. Geranyl-geranyl eicosapentaenoate prepared according to the procedures used in Example 5 was dissolved in cotton seed oil and administered to the foregoing animals through the corresponding administration routes in an amount of 2000 mg/kg (body weight). Subsequently, these animals were kept using a powdery blend feed having an AIN-93 composition to thus observe the prognostic conditions of the animals over 2 weeks after the administration and after 2 weeks, these animals were anatomized to thus inspect the animals for conditions of internal organs thereof.

Geranyl-Geranyl Eicosapentaenoate
Judged Efficacy (TRACP, t-test relative to the control) (osteoclasts; 2 weeks): ⊚ (The test substance shows a considerable inhibitory effect (p < 0.01))
TRACP Act. (osteoclasts; co-culture 2 weeks with 10 nM Calcitriol and 100 nM Dexamethasone, control 102.8 ± 12.6): 9.7 ± 1.4 KA-U/well
Cell Growth Rate (MC3T3-E1 cells [1]): 107.8%
ALP Act. (MC3T3-E1 cells [2]; cultivation over one week, control 71.6 ± 4.6): 123.5 ± 7.3 KA-U/well
Judged Efficacy (ALP, t-test relative to the control) (MC3T3-E1 cells [2]; one week): ⊚ (The test substance shows a considerable inhibitory effect (p < 0.01))
Anatomical findings of the internal organs (Test for acute toxicity; 2000 mg/kg, subcutaneous, intraperitoneal, after 2 weeks): normal
Mortality (Test for acute toxicity; 2000 mg/kg, subcutaneous, intraperitoneal, after 2 weeks from the administration): any animal was not killed
LD50 value (Test for acute toxicity; female rats, subcutaneous and intraperitoneal groups, single 2000 mg/kg in cotton seed oil, 2 weeks observation): higher than 2000 mg/kg (body weight)
